Laboratory results: US20080089947A1, “Calcium Influx Inhibitors in the Treatment of Ischemia” (priority 2006, published 2008)
In brackets after ≈: the same amount, converted by molar mass. Entries after “also recorded” stand apart in the source; their conditions may differ.

What was measured:
[1] = test system: mitochondrial calcium uptake (mitochondrial calcium uniporter); assay: 45Ca2+ uptake in isolated liver mitochondria; type: biochemical, rat; settings: for EC50: isolated mitochondria, pyruvate and malate, read-out: EC50 of inhibition of mitochondrial calcium uptake
Experimental: Livers were isolated from male Sprague-Dawley rats (300 g). Rats were anesthetized with isoflurane and sacrificed by cervical dislocation. […] Briefly, the liver was minced and homogenized in liver homogenization buffer (LHB)(0.2 M mannitol, 50 mM sucrose, 10 mM KCl, and 1 mM Na2EDTA, pH=7.4, KOH). The homogenate was filtered through gauze and centrifuged 2 times for 10 min at 1,000× g. The supernatant was collected and centrifuged for 10 min at 3,000× g. The pellet was washed twice and resuspended in calcium-free LHB without EDTA to a concentration of 2 mg/mL. All steps were performed at 4° C.
A combination of metabolic substrates pyruvic acid and malic acid (final concentration 1 mM each) was used as a source of mitochondrial energy. Radioactive ^45Ca^2+ (NEN Life Sciences Products, Inc., Boston, Mass.) was added to the incubation buffer (final concentration range: 0.1-2.0 μM). The experiments were initiated by addition of mitochondria to the incubation buffer (final concentration 0.2 mg/ml). 2-APB (in DMSO) was added at concentrations from 0-100 μM to determine its effects on mitochondrial calcium uptake. Mitochondria were incubated in a 37° C. shaking water bath for 30 minutes, filtered, and washed. Accumulated mitochondrial ^45Ca^2+ was then measured using liquid scintillation counting in a Beckman LS6000IC beta counter. Mitochondria in incubation buffer without pyruvic acid and malic acid served as background controls. Ruthenium red (10 μM), a uniporter antagonist, was tested in all conditions to determine inhibitory capacity on observed mitochondrial calcium uptake, and to ensure that all observed calcium uptake was through the uniporter.
A combination of metabolic substrates pyruvic acid and malic acid was used as a source of mitochondrial energy. Radioactive ^45Ca^2+ was added to the incubation buffer (final concentration range: 0.1-2.0 μM). […] The calcium uptake experiments were initiated by addition of mitochondria to the incubation buffer (final concentration 0.2 mg/ml). Mitochondria were incubated in a 37° C. shaking water bath for 30 minutes, filtered, and washed, and calcium uptake quantified. Mitochondria in incubation buffer without pyruvic acid and malic acid served as background controls.

[2] = test system: mitochondrial calcium uptake; assay: 45Ca2+ uptake with ATP in mitochondria from non-ischemic and 24 h cold-stored livers; type: biochemical, rat
Experimental: Methods: Rat livers were perfused and stored using a previously reported technique (Belous et al., 2003). Briefly, an abdominal incision was made and the portal vein was cannulated with a 20-gauge cannula. The liver was then perfused with 30 ml 4° C. University of Wisconsin solution (UW). Half of the liver was processed for calcium uptake experiments immediately, while the other half was first stored for 24 hours in 4° C. UW solution (ischemic cold storage). Mitochondria were isolated from the liver as described in Example 1. Mitochondrial calcium uptake experiments were performed on isolated mitochondria from both the ischemic and non-ischemic portions of the liver as described in Example 1. In order to simulate the cellular conditions present during ischemia/reperfusion, 1 mM ATP was added to the incubation buffer. The selective, membrane-permeable PLC inhibitor, U-73122, was added to mitochondrial calcium uptake reaction tubes to a final concentration of 5 μM. This compound was tested on mitochondria isolated from both ischemic and non-ischemic livers to determine the effect of PLC inhibition on mitochondrial calcium uptake following ischemia/reperfusion. […] Ruthenium red (10 μM) was used to block the uniporter and ensure that all observed calcium uptake was ruthenium red-sensitive, and thus entering solely through the uniporter. To simulate reperfusion, mitochondria were incubated for 30 minutes in a 37° C. water bath with ATP present, after which the total mitochondrial calcium uptake was quantified as described in Example 1.

[3] = cited from earlier work
liver transplantation = settings: donor livers cold stored 24 hours in UW containing 2-APB
Experimental: In further experiments, full scale liver transplants were performed in rats. Livers were harvested from male Sprague-Dawly rats and cold stored for 24 hours in UW solution, or UW containing 2-APB. The livers were then removed from cold storage and transplanted into recipient rats. The operations were performed under general anesthesia, and the animals were followed after surgery for 2 days.

hepG2 cells = settings: 100 μM in UW prior to cold storage, 6 hour ischemic
Experimental: To investigate the cellular mechanisms of 2-APB, an in vitro model using hepG2 cells transfected with GFP-tagged cytochrome c was used. […] Cells were grown at 37° C., 5% CO2 in MEM (ATCC, Manassas, Va.), with 10% fetal bovine serum, and 1% penicillin/streptomycin to 80% confluence. The media was replaced with UW solution and cells were incubated at 4° C. in hypoxic conditions for 6 hours. Hypoxia was achieved by placing the cells in an airtight incubator (Form a Scientifica, Marietta, Ohio), which was flushed with 5% CO2 and 95% N2 until the oxygen content in the container reached <0.1%, as verified using a dissolved O2 meter (Model 4000, VWR Scientific Products, Suwannee, Ga.). To render the storage solution hypoxic before experiments were carried out, UW was preincubated in the hypoxic chamber in an open sterile container for 8 h before experiments were carried out. […] Following 6 hours of hypothermic storage, the UW was replaced with warm, oxygenated media, and the cells were incubated at 37° C. Cytoplasmic extracts were harvested in lysis buffer (10 mM of KCl, 10 mM of HEPES, 1 mM of NaEDTA, 200 mM of Mannitol, 50 mM of sucrose) immediately following storage and after 60, 120, and 180 min of rewarming. HepG2 cytoplasmic extracts were harvested before exposure to storage conditions to serve as a control (untreated control). […]

[4] = test system: liver ischemia/reperfusion injury
Experimental: 2-APB (2 mg/kg in DMSO), or vehicle (DMSO) was injected into the portal vein following 1 hour of ischemia, concurrent with removal of the vascular clamp. Animals were sacrificed after 3 hours of reperfusion (n=6 per group). Serum AST, ALT, and LDH levels were measured, and liver samples were evaluated histologically using H&E and TUNEL staining. To investigate the effect of 2-APB at the cellular level, an I/R model in HepG2 cells transfected with GFP-tagged cytochrome c was used. Statistical significance was assessed using Student t-test.

[5] = test system: liver ischemia/reperfusion injury; remark: listed apart in the source
Experimental: Methods: Following overnight fast, male Sprague-Dawley rats were placed under general anesthesia with isoflurane gas (3%, 2 L O2). Via a midline incision, a laparotomy was performed and the portal vein, hepatic artery, and bile duct were identified and dissected free from surrounding structures. […] Approximately 70% liver ischemia was created by using an atraumatic vessel clamp (S&T Microclamp B-3, Fine Science Tools, Foster City, Calif.) to occlude the portal vein and hepatic artery branches to the median and left liver lobes. […] The clamp was removed after 1 hour and the livers were given three hours to reperfuse with blood while the animals were conscious. Liver injury was assessed by serum levels of AST, ALT, LDH, which are three standard serum markers of acute ischemia/reperfusion injury to the liver. Histologic liver analysis using H&E staining and TUNEL assay, which identifies terminally damaged (apoptotic) cells, were used to look directly at cell damage in the collected livers.
Serum Transaminase Determinations: Serum collected from each animal at the time of euthanasia was analyzed for aspartate aminotransferase (AST), alanine aminotransferase (ALT), and lactic acid dehydrogenase (LDH) concentrations.
Assessment of apoptosis: In order to quantitate the rate of apoptosis in a sensitive manner, the inventors performed terminal deoxynucleotidyl transferase-mediated deoxyuridine triphosphate nick-end labeling (TUNEL) on paraffin embedded tissue sections from each animal. This assay was performed following the manufacturer's recommendations for a commercially available kit (ApopTag Plus Fluorescein In Situ Apoptosis Detection Kit, Chemicon International, Inc., Temecula, Calif.). Five randomly selected fields from each tissue section were examined at an original magnification of 200×. The number of positively staining cells per field was recorded. The average number of positively staining nuclei per field for each animal was used for analysis.
Quantitation of liver necrosis: Paraffin embedded tissue sections were stained with hematoxylin and eosin (H&E) and examined at an original magnification of 200×. Digital photomicrographs were made from five randomly selected fields of each tissue section. […] ImagePro software was used to create specific overlays of any region of necrosis in each of the photomicrographs. Using these overlays, percent area necrosis was calculated for each photomicrograph. The average percent area necrosis for each animal was then used for analysis.

PLC = settings: read-out: EC50 reported for PLC inhibition in intact cells; cited from earlier work
[6] = test system: liver ischemia/reperfusion injury; assay: 70% liver ischemia/reperfusion, ruthenium red pretreatment; type: in vivo, rat
Experimental: Thirty minutes prior to the initiation of liver ischemia, animals received ruthenium red (30 mg/kg in NaCl) or vehicle (0.9% NaCl) IV. Ischemia was carried out for one hour. The total anesthesia time for the animals was 90 minutes. Sham operated animals received laparotomy, mobilization of the liver, and underwent equivalent anesthesia. Following vascular clamp removal, animals were allowed to reperfuse for periods of 15 minutes, 1 hr, 3 hr, or 6 hr. At the time of animal sacrifice, serum was collected, and liver tissue was preserved for histological analysis. A total of 40 animals were used for this experiment. Ten animals were used for each time point: 4 ischemia/reperfusion, 4r ischemia/reperfusion with ruthenium red pretreatment, and 2 sham operated animals. […] All experimental measurements and data were obtained as detailed in Example 2.

[7] = 0.5-7.5 μM, 0.2 μM 45Ca2+, baseline 0.14% DMSO
[8] = 30 mg/kg, 30 min before 1 h ischemia, 6 hours of reperfusion

COc1ccc2c(c1)CC[C@@H]1[C@@H]2CC[C@]2(C)[C@@H](NCCCCCCN3C(=O)CCC3=O)CC[C@@H]12 [U-73343, 1-[6-((17β-3-Methoxyestra-1,3,5(10)-trien-17-yl)amino)hexyl]-2,5-pyrrolidinedione]
mitochondrial calcium uptake [1, 7]: no effect; also recorded: did not significantly affect | mitochondrial calcium uptake ([2]; 5 μM, mitochondria from ischemic livers (24 h 4° C. UW)): slight and insignificant decrease; also recorded: no effect | mitochondrial calcium uptake ([2]; 5 μM, mitochondria from non-ischemic livers): slight but significant increase; also recorded: did not

Ru360
solubility in water [3]: soluble in water

NCCOB(c1ccccc1)c1ccccc1 [2-APB, 2-aminoethoxydiphenyl borate]
Mortality at 2 days (liver transplantation): 0% | release of GFP-tagged cytochrome c into the cytoplasm (hepG2 cells): prevented this release | elevation of serum AST, ALT and LDH ([4]; 2 mg/kg in DMSO, portal vein at onset of reperfusion, 3 h reperfusion): significantly inhibited | liver necrosis, H&E histology ([4]; 2-APB administered during reperfusion): little evidence of liver necrosis | solubility in DMSO [3]: 20 mg/mL (≈ 88.8 mM) | solubility in ethanol [3]: 25 mg/mL (≈ 111 mM) | liver damage by serum AST, ALT, LDH in sham-operated animals ([5]; 2 mg/kg in DMSO, portal vein, after sham operation): neither 2-APB nor the vehicle, DMSO, were damaging to the liver | rise in serum AST, ALT and LDH ([5]; 2 mg/kg in DMSO, portal vein, before 1 h ischemia, 3 h reperfusion): eliminated the rise in AST, ALT and LDH | liver histology 400× ([5]; 2 mg/kg portal vein before 1 h ischemia, 3 h reperfusion): Cells are healthy and appear identical to the normal liver cells | cells undergoing cell death ([5]; 2 mg/kg portal vein before 1 h ischemia, 3 h reperfusion, H&E and TUNEL): ≤ 2% | EC50 ([1]; 30 min, 37° C.): 2000 to 3000 nM | mitochondrial calcium influx ([1]; range of 1-100 μM 2-APB): consistently and dose-dependently inhibited

COc1ccc2c(c1)CCC1C2CCC2(C)C(NCCCCCCN3C(=O)C=CC3=O)CCC12 (stereo not drawn) [U-73122, 1-[6-((17β-3-Methoxyestra-1,3,5(10)-trien-17-yl)amino)hexyl]-1H-pyrrole-2,5-dione]
solubility in DMSO [3]: 1 mg/mL (≈ 2.15 mM) | solubility in ethanol [3]: 0.5 mg/mL (≈ 1.08 mM) | inhibition of mitochondrial calcium uptake ([1]; 5 μM or greater U-73122): 90-100% | mitochondrial calcium uptake [1, 7]: dose-dependently inhibited | EC50 ([1]; 30 min, 37° C.): 2000 to 3000 nM | decrease of mitochondrial calcium uptake ([2]; 5 μM, mitochondria from ischemic livers (24 h 4° C. UW), vs. ATP and calcium alone): 85±2% | decrease of mitochondrial calcium influx ([2]; 5 μM, mitochondria from non-ischemic livers, vs. ATP and calcium alone): 54±5% | EC50 (PLC): 1000 to 2100 nM

N.N.N.N.N.N.N.N.N.N.N.N.N.N.[Cl-].[Cl-].[Cl-].[Cl-].[Cl-].[Cl-].[O-2].[O-2].[Ru+3].[Ru+3].[Ru+4] [ruthenium red]
serum ALT [6, 8]: 294±39 | serum AST [6, 8]: 597±121 | liver necrosis ([6]; 3 and 6 hours of reperfusion): significantly decreased | AST and ALT levels ([6]; 3 hours of reperfusion): trend for the animals pretreated with ruthenium red to have lower AST and ALT levels | liver necrosis, percent area ([6]; 3 hours of reperfusion): 5%±2% | reduction in ALT levels ([6]; 6 hour reperfusion time point): 4 fold | reduction in AST levels ([6]; 6 hour reperfusion time point): 2.5 fold | liver necrosis, percent area ([6]; 6 hours of reperfusion): 3%±1% | rate of apoptosis (TUNEL) ([6]; all reperfusion time points (15 min, 1, 3, 6 hr)): significantly decreased | AST or ALT levels in sham operated animals ([6]; pretreatment of sham operated animals vs. vehicle alone): did not alter | solubility in water [3]: soluble in water | mitochondrial calcium uptake ([1]; 10 μM ruthenium red, 30 min, 37° C.): completely blocked | mitochondrial calcium uptake ([2]; 10 μM ruthenium red, mitochondria from both ischemic and non-ischemic livers): prevented calcium uptake | mitochondrial calcium uptake ([2]; 10 μM ruthenium red, mitochondria from both ischemic and non-ischemic livers, listed as Ruthenium red): completely blocked
